Read-outs that look alike come from different tables or passages of the source. One block for each molecule: values may come before it.
Assays:
[1] = target: T1, FTase from human brain cytosol (Homo sapiens, UniProt P49354+P49356); assay: In vitro FTase assay ([3H]-farnesylation of H-Ras); format: biochemical; conditions: mean of 2 experiments (lowest-highest); read-out: Enzyme assays IC50 FTase
T1 construct: FTase from human brain cytosol; purchased ABS Reagents, Wilmington, Del; host or cells: human brain cytosol (tissue-derived, not recombinant)
Protocol: (§1) The effect of Compound A and other drugs on FTase activity was assayed in vitro with FTase from human brain cytosol (ABS Reagents, Wilmington, Del.) as target enzyme and recombinant human H-Ras protein containing the wild type CAAX box (Biomol, Plymouth Meeting, Pa.) as a specific substrate. The incubation mixture (25 μl) for [^3H]-farnesylation contained 50 mM Tris-HCl (pH 7.5), 5 mM dithiothreitol, 20 μM ZnCl2, 40 mM MgCl2, 0.6 μM [^3H]-farnesyl pyrophosphate (22.3 Ci/mmol) (NEN, Boston, Mass.), 4 μM recombinant H-Ras and 10 μg FTase. After 60 min at 37° C., the reaction was stopped by adding 150 μl of absolute ethanol. The mixture was then filtered on Unifilter GF/B microplate (Packard, Rungis, France) and washed 6 times with ethanol prior to scintillation counting. After adding 50 μl of Microscint 0, plates were counted with a Packard Top Count scintillation counter. Drug effects on GGTase I activity were assayed by a similar method with GGTase I from human brain (ABS reagent) as target enzyme and human recombinant H-Ras containing a mutated CAAX box (CVLL)(Biomol). The incubation mixture contained 4 μM recombinant H-Ras, 0.6 μM [^3H]-geranylgeranyl-pyrophosphate (19.3 Ci/mmol) (NEN) and 100 μg of GGTase I. GGTI-286 was used as a positive control for the GGTase-I inhibition assay. Results were expressed as the concentrations of drugs required to inhibit 50% of prenyl-incorporation into the recombinant H-Ras proteins (IC50). Assessment of farnesyl-transferase inhibition in intact cells.

[2] = target: T2, GGTase I from human brain (Homo sapiens, UniProt P49354+P53609); assay: In vitro GGTase I assay ([3H]-geranylgeranylation of H-Ras CVLL); format: biochemical; conditions: read-out: Enzyme assays IC50 GGTase I
T2 construct: GGTase I from human brain; purchased ABS reagent; host or cells: human brain (tissue-derived, not recombinant)
Protocol: as §1

[3] = system: CNE1 NPC cell line; conditions: CNE1, EBV-negative line; cited from earlier work
[4] = system: C15 cells; conditions: for IC50: read-out: IC 50, NPC cell viability, C15 Cells, 72 h incubation, WST-1, PolyHEMA-coated plates
[5] = system: C666-1 cells; assay: WST-1 cell viability assay, C666-1 cells; conditions: for IC50: read-out: IC 50, NPC cell viability, C666-1 Cells
Protocol: Cell viability assays were performed in 96 well plastic microplates, either uncoated (C666-1) or coated with Poly HEMA (C15). For each cell line, the number of cells distributed per well was optimized in order to achieve the highest metabolic activity while keeping exponential growth till the end of the test. C15 and C666-1 cells were seeded at 10^5 and 35×10^3/well, respectively, in 150 μl culture medium. Following an overnight pre-incubation culture, serial dilutions of chemotherapy drugs (50 μl; final concentration 50 nM-50 μM) were added in quadruplicate to a […]. At the completion of a 72 h incubation with tested pharmacological agents, cell viability was evaluated using the WST-1 assay (Roche Molecular, France). The WST-1 assay is based on the cleavage of the tetrazolium salt by mitochondrial dehydrogenases. […] Cells were incubated with 10 μl of the WST-1 reagent added to the culture medium, for 3 to 6 h, at 37° C. The plates were subsequently read on an ELISA reader (Dynatech MR7000, Guernsey channel Island, USA) using a 490 nm filter. The mean and standard deviation were determined for quadruplicate samples. For each compound, values falling in the linear part of sigmoid curve were included in a linear regression analysis and were used to estimate the 50% inhibitory concentration (IC 50). Measurement of caspase activity in drug treated NPC cells.
(Ali, H. et al., Chemotherapy in advanced nasopharyngeal cancer. Oncology (Huntingt), 14:1223-1230, 2000.) Their short term cytotoxic effect was assessed in vitro on the C15 and C666-1 cells, using a cell viability assay based on WST reduction. Cultured cells were incubated in the presence of various concentrations of each therapeutic agent for 72 hours.

[6] = system: C15 cells; assay: TRAF1 cleavage Western blot, C15 cells; format: cell-based, human; conditions: 24 h, doxorubicin 1 μM, Compound A 5 μM
Protocol: FIG. 6. Induction of TRAF1-cleavage in C15 cells treated with doxorubicin combined to Compound A. A: Diagram of Fas-mediated TRAF-1-cleavage as reported by Leo et al. (2001). The locations of target peptides used for production of the H-3 monoclonal and H-132 polyclonal antibody are indicated by hatched boxes. The peptide targeted by H-3 was entirely contained in fragment II whereas the peptide targeted by H132 was mainly co-linear with fragment I. B: C15 cells were treated for 24 h with doxorubicin (1 μM), Compound A […] or a combination of both. Control cells were treated with the Fas-agonist antibody 7C11. Cell lysates (50 μg protein per lane) were separated on a 8-16% SDS-PAGE linear gradient prior to Western Blot analysis with anti-TRAF-1 antibodies. Both antibodies detected a main band at 46 kd Additional bands corresponding to fragments of smaller sizes were visible, mainly in samples treated with 7C11 or the combination of doxorubicin and Compound A. In the extracts of cells treated with 7C11, these smaller fragments had apparent molecular weights of 29 kD (H-3) and 24 kD (H-132) which were compatible with the sizes of TRAF1 fragments reported by Leo et al. (2001). Similar results were obtained in three similar experiments.

[7] = system: C15 cells; assay: cells; conditions: Homo sapiens, 72 h, read-out: IC 50, NPC cell viability, C15 Cells
[8] = system: farnesyl-transferase in intact MIAPaca cells; assay: Farnesyl-transferase inhibition in intact cells (H-Ras and N-Ras Western blot); format: cell-based, human; conditions: 48 h
Protocol: The effect of Compound A on farnesyl-transferase in intact cells was assayed in MIAPaca cells, a human pancreatic carcinoma cell line which was purchased from the ATCC. Both H-Ras and N-Ras were investigated as reference substrates of the endogenous farnesyl-transferase. Total protein extracts were prepared from MIAPaca cells treated for 48 h with increasing concentrations of Compound A (1-100 nM) along with extracts from untreated cells as a negative control. A positive control was provided by cells treated with mevastatine (30 μM). Mevastatine is an HMG-CoA reductase inhibitor which blocks the synthesis of farnesyl metabolic precursors. Cell extracts were separated by SDS-polyacrylamide gels (15%) and analyzed by Western blot with polyclonal antibodies directed to H-Ras and N-Ras (Santa Cruz, Heidelberg, Germany). Farnesyl-transferase inhibition was assessed indirectly by detection of non-prenylated forms of H-Ras and N-Ras which were slightly shifted toward higher molecular weights and reacted more efficiently with antibodies. Assessment of drug effect on NPC cell viability.

[9] = system: C15 cells; assay: Nuclear morphology, Hoechst 33342 staining, C15 cells; format: cell-based, human; conditions: 48 h to 72 h, doxorubicin 1 μM, Compound A 5 μM
From the text: FIG. 3. […] A: non-treated cells.

[10] = system: C15 cells; assay: PARP cleavage Western blot, C15 cells; format: cell-based, human; conditions: doxorubicin 1 μM, Compound A 5 μM, combination at 24 h
Protocol: FIG. 5. […] Corresponding cell lysates (50 μg protein per lane) were separated by 7.5% SDS-PAGE and analyzed by Western Blot with an anti-PARP monoclonal antibody. The cleaved product of PARP was at 85 kD, as shown in the positive-control extract derived from C15 cells treated with the CD95 agonist-antibody 7C11.

[11] = system: TWO1 and TWO39 NPC cell lines; conditions: TWO1 and TWO39, EBV-negative lines; cited from earlier work
[12] = mean of 2 experiments (lowest-highest)

SMILES: N.N.[Cl][Pt][Cl] [Cis-platinum, cis-platin]
concentration inducing growth arrest [3]: about 1 μM
enhancement of cytotoxicity by combination with Compound A [4]: not observed
IC50 [4]: 1000 nM
IC50 ([5]; 72 h incubation, WST-1): 5000 nM

SMILES: O=c1[nH]cc(F)c(=O)[nH]1 [5-fluorouracyl]
sensitivity to short term cytotoxic effect [4]: No significant effects
IC50 [4]: ≥ 5000 nM
sensitivity to short term cytotoxic effect [5]: No significant effects
IC50 ([5]; 72 h incubation, WST-1): ≥ 5000 nM

SMILES: COc1cc(Cn2cncc2CC(=O)N2Cc3nc(-c4ccccc4Br)cn3Cc3c(F)cccc32)ccc1C#N [Compound A]
TRAF1 cleavage [6]: no modifications
IC50 [7]: 10000 nM
concentration giving significant inhibition of H-Ras and N-Ras farnesylation [8]: 50 nM
IC50 [1]: 15 nM
nuclear apoptosis morphological changes [9]: much less apparent
IC50 [2]: > 100000 nM
IC50 ([5]; Homo sapiens, C6661, 72 h): 10000 nM
PARP cleavage [10]: Moderate PARP cleavage

SMILES: COc1cccc2c1C(=O)c1c(O)c3c(c(O)c1C2=O)C[C@@](O)(C(=O)CO)C[C@@H]3O[C@H]1C[C@H](N)[C@H](O)[C@H](C)O1 [Doxorubicin, doxorubicin]
TRAF1 cleavage [6]: no modifications
IC50 [7]: 150 nM
nuclear apoptosis morphological changes [9]: much less apparent
IC50 ([5]; Homo sapiens, C6661, 72 h): 200 nM
PARP cleavage [10]: Moderate PARP cleavage

SMILES: CC(=O)O[C@H]1C(=O)[C@@]2(C)[C@H]([C@H](OC(=O)c3ccccc3)[C@]3(O)C[C@H](OC(=O)[C@H](O)[C@@H](NC(=O)c4ccccc4)c4ccccc4)C(C)=C1C3(C)C)[C@]1(OC(C)=O)CO[C@@H]1C[C@@H]2O [Taxol]
sensitivity to short term cytotoxic effect [4]: totally resistant
IC50 [7]: ≥ 25000 nM
effect on NPC cell lines [11]: induce growth arrest and/or apoptosis
sensitivity to short term cytotoxic effect [5]: highly sensitive
IC50 ([5]; Homo sapiens, C6661, 72 h): 200 nM

The remaining lines, values ahead:

IC50 [1]: 365 nM
IC50 [2, 12]: 114 nM
SMILES: COC(=O)[C@H](CC(C)C)NC(=O)c1ccc(NC[C@@H](N)CS)cc1-c1ccccc1 [GGTI-286]

IC50 [1]: 30 nM
IC50 [2, 12]: 314 nM
SMILES: COC(=O)[C@H](CCSC)NC(=O)c1ccc(NC[C@@H](N)CS)cc1-c1ccccc1 [FTI-277]

IC50 [1]: 91 nM
IC50 [2, 12]: 268000 nM
SMILES: CC[C@H](C)[C@@H](CN1CSC(C)(C)[C@H]1C(=O)N[C@@H](CCSC)C(=O)OC)NC[C@@H](N)CS [BIM-46068]
